Measured values published in US4248889A, “3,5-Dihydroxypentanoic ester derivatives having antihyperlipaemic activity” (Sankyo Company Limited, priority 1978, dated 1981).

target: cholesterol biosynthesis (crude enzyme extracted from rat liver); assay: inhibition of cholesterol biosynthesis by crude enzyme extracted from rat liver (radioactive acetic acid, 37° C., 60 minutes; cholesterol precipitated with digitonin, radioactivity measured); assay type: biochemical
Description: Crude enzyme extracted from rat liver was reacted with radioactive acetic acid at 37° C. for 60 minutes. The radioactive cholesterol thus biosynthesized was saponified and precipitated with digitonin, and the radioactivity was measured to determine the amount of cholesterol produced. The reaction was repeated, by adding one of the compounds of the invention listed in the following Table at the beginning of the reaction, and the amount of cholesterol biosynthesized was again determined, to give a quantitative measurement of the inhibitory effect of the compounds of the invention. The concentrations (μg/ml) of the compounds of the invention and of a known compound (clofibrate) which gave approximately 50% inhibition of cholesterol biosynthesis re reported in the following Table as I50 values [see Bricker et al, The Journal of Biological Chemistry, 247, 4914 (1972)]. The compounds of the invention are identified in the following Table by the numbers heretofore assigned to them.

I50 (concentration which gave approximately 50% inhibition of cholesterol biosynthesis) [µg/mL] | Compound
3.7 | CCOC(=O)CC(O)CC(O)CCc1ccccc1 (centres unmarked) [Compound 1, Ethyl 3,5-dihydroxy-7-phenylheptanoate]
9.0 | CCOC(=O)CC(O)CC(O)C=Cc1ccccc1 (centres unmarked) [Compound 8, Ethyl 3,5-dihydroxy-7-phenylhept-6-enoate]
23 to 50 | CCOC(=O)CC(O)CC(O)C(C)Oc1ccccc1 (centres unmarked) [Compound 9, Ethyl 3,5-dihydroxy-6-phenoxyheptanoate]
5 to 15.2 | CCOC(=O)CC(O)CC(O)COc1ccccc1Cl (centres unmarked) [Compound 10, Ethyl 6-(o-chlorophenoxy)-3,5-dihydroxyhexanoate]

More lines, now with the values behind:

Compound | I50 (concentration which gave approximately 50% inhibition of cholesterol biosynthesis) [µg/mL]
CCOC(=O)C(C)(C)Oc1ccc(Cl)cc1 [Clofibrate, clofibrate, reference compound] | 250 to 300
CCOC(=O)CC(O)CC(O)CCc1ccc(Cl)cc1 (centres unmarked) [Compound 2, Ethyl 7-p-chlorophenyl-3,5-dihydroxyheptanoate] | 17.2
CCOC(=O)CC(O)CC(O)CCc1cccc2ccccc12 (centres unmarked) [Compound 3, Ethyl 3,5-dihydroxy-7-(1-naphthyl)heptanoate] | 5.0
CCOC(=O)CC(O)CC(O)CCc1c(C)ccc2ccccc12 (centres unmarked) [Compound 4, Ethyl 3,5-dihydroxy-7-(2-methyl-1-naphthyl)heptanoate] | 0.24
CCOC(=O)CC(O)CC(O)CCc1c(C)ccc2c1CCCC2 (centres unmarked) [Compound 5, Ethyl 3,5-dihydroxy-7-(2-methyl-5,6,7,8-tetrahydro-1-naphthyl)heptanoate] | 1.56
CCOC(=O)CC(O)CC(O)CCCc1cccc2ccccc12 (centres unmarked) [Compound 6, Ethyl 3,5-dihydroxy-8-(1-naphthyl)octanoate] | 3.4
CCOC(=O)CC(O)CC(O)CCCc1c(C)ccc2ccccc12 (centres unmarked) [Compound 7, Ethyl 3,5-dihydroxy-8-(2-methyl-1-naphthyl)octanoate] | 1.2
